# Tests used:
# Type in all cases: cell-based, mouse
# K-Ras^G12D MEFs [1] = test: Proliferation assay (cell numbers) of K-Ras^G12D MEFs in starvation medium
# Protocol: Cell culture experiments were performed at 37° C. and 5% CO2 in DMEM/F12 with 10% dialyzed FBS (molecular weight cut-off 10,000; Gemini Biosystems), 100 U/mL penicillin, 100 μg/mL streptomycin, 5 mM glucose and 2 mM glutamine. For proliferation assays, MEFs were plated in complete medium, 5 h later briefly rinsed and then cultured in starvation medium as indicated. For EAA titration experiments, EAAs were supplemented at indicated percentages of 1×MEM amino acid solution (M5550, Sigma). Cancer cell lines were cultured in complete medium for 1 day prior to starvation. Numbers of adherent cells, which are >95% viable as assessed by Trypan Blue exclusion were determined using a Multisizer 4 Coulter Counter (Beckman). For mTOR activation and localization experiments, cells were rinsed and then incubated in EAA starvation medium (DMEM/F12 lacking all amino acids except glutamine) for 1 h, and subsequently placed in medium supplemented with EAAs (1×MEM amino acid solution), albumin (3%, if not stated otherwise) or fresh EAA-free starvation medium for indicated periods of time.
# [2] = test system: Ulk1/2 wild type and DKO MEFs expressing K-Ras^G12V; test: DQ-BSA proteolysis in Ulk1/2 wild type and DKO MEFs expressing K-Ras^G12V; details: 250 nM torin 1; Ulk1/2 wild type versus DKO
# Protocol: (§1) K-Ras^G12D MEFs were pre-treated for 1 h with 250 nM torin 1 and then incubated with fluorescently labeled dextran or albumin. Intracellular dextran or albumin was quantified after 30 min uptake. Data are represented as mean±STDEV (n=6 fields of view with >10 cells each). P-values were calculated using a two-tailed unpaired t-test. n.s. not significant. […] Uptake of fluorescently labeled dextran was quantified after 30 min uptake. Data are represented as mean±STDEV (n=8 fields of view with >10 cells each). P-values were calculated using a two-tailed unpaired t-test. n.s. not significant. […] K-Ras^G12D MEFs were pre-treated for 1 h with 250 nM torin 1, then incubated with fluorescently labeled dextran for indicated periods of time. Data are represented as mean±STDEV (n=8 fields of view with >10 cells each). […] Mean fluorescence intensity per cell was determined after 6 h of DQ-BSA uptake. Data are represented as mean±STDEV (n=7 fields of view with >15 cells each). P-values were calculated using a two-tailed unpaired t-test. ***p<0.001, n.s. not significant. […] DQ-BSA fluorescence intensity is represented as mean±STDEV (n=7 fields of view with >20 cells each). P-values were calculated using a two-tailed unpaired t-test. ***p<0.001. […] DQ-BSA fluorescence intensity is represented as mean±STDEV (n=6 fields of view with >30 cells each). P-values were calculated using a two-tailed unpaired t-test. […]
# K-Ras^G12D MEFs [3] = test: Uptake of fluorescently labeled dextran or albumin; details: pre-treated 1 h with 250 nM torin 1; 30 min uptake
# Protocol: To characterize how cells derive leucine from extracellular proteins, cellular albumin uptake was investigated using constitutively fluorescent albumin and intracellular albumin proteolysis using a self-quenched albumin that emits fluorescence upon degradation (DQ-BSA) (Reis et al., 1998). […] It was then determined whether lysosomal albumin degradation was required to support growth during leucine starvation. […] Ras GTPases can promote cellular uptake of macromolecules through macropinocytosis (Bar-Sagi and Feramisco, 1986). […] To investigate whether this endocytic pathway contributed to albumin-dependent growth, cells were treated with the Na^+/H^+ exchange inhibitor EIPA, which blocks macropinocytosis but not other endocytic pathways (West et al., 1989).
# To distinguish these possibilities, it was first tested whether mTORC1 inhibition increased internalization of extracellular macromolecules. […] It was next examined whether mTORC1 inhibition affected lysosomal degradation of internalized proteins.
# [4] = test system: Ulk1/2 DKO MEFs expressing K-Ras^G12V; test: Proliferation of Ulk1/2 DKO MEFs expressing K-Ras^G12V; details: leucine-free medium containing 3% albumin; 250 nM torin 1
# Protocol: as §1
# K-Ras^G12D MEFs [5] = test: 14C-leucine labeling of proteins and lipids; details: mean±STDEV (n=3); control cells 364±69
# Protocol: Cells were cultured in full medium containing 0.5 μCi (0.4%) L-[^14C(U)]-Leucine (Perkin Elmer) for 24 h. Total lipid and protein fractions were isolated essentially according to the Blight-Dyer method (Bligh and Dyer, 1959). Protein pellets were resolubilized in 6 M guanidine hydrochloride, then transferred to scintillation fluid. Organic phase-dissolved lipids were transferred to scintillation vials, and after solvent evaporation, resuspended in scintillation fluid. ^14C-leucine content of proteins and lipids was quantified by scintillation counting.
smiles,measurement,setting,value
CCC(=O)N1CCN(c2ccc(-n3c(=O)ccc4cnc5ccc(-c6cnc7ccccc7c6)cc5c43)cc2C(F)(F)F)CC1 [torin 1],cell proliferation,"K-Ras^G12D MEFs [1]; 3% albumin, EAAs abundant extracellularly, 250 nM torin 1, day 3",strongly decreased cell proliferation
same,cell proliferation,"K-Ras^G12D MEFs [1]; 3% albumin, low EAA concentrations, 250 nM torin 1, day 3",significantly improved cell proliferation
same,cell proliferation,"K-Ras^G12D MEFs [1]; 3% albumin, over a 10-fold range of EAA concentrations, 250 nM torin 1",only slightly reduced proliferation
same,cell proliferation,"K-Ras^G12D MEFs [1]; free leucine provided extracellularly, increasing doses of torin 1, day 3",decreased with increasing doses
same,cell proliferation,"K-Ras^G12D MEFs [1]; leucine-free medium +3% albumin, torin 1 raised from 50 to 300 nM",progressively improved cell proliferation
same,cell proliferation,"K-Ras^G12D MEFs [1]; medium lacking isoleucine, lysine or arginine, 3% albumin, 250 nM torin 1",induced cells to robustly proliferate
same,DQ-BSA proteolysis in response to torin 1,[2],comparable increase in DQ-BSA proteolysis
same,cellular uptake of fluorescently labeled dextran or albumin,K-Ras^G12D MEFs [3],neither torin 1 nor Raptor knockdown elevated cellular uptake
same,cell proliferation,[4],enhanced proliferation
same,ratio of protein to lipid incorporation of 14C-leucine label,K-Ras^G12D MEFs [5],203±27
